Laboratory results published in US5464826A, “Method of treating tumors in mammals with 2',2'-difluoronucleosides” (Eli Lilly and Company, priority 1994, dated 1995).

Key:
6C3HED lymphosarcoma = 6C3HED lymphosarcoma tumor model; assay type: in vivo, mice (C3H); conditions: IP
Text: 6C3HED--The 6C3HED lymphosarcoma was obtained in 1979 from the Division of Cancer Treatment, N.C.I., tumor bank maintained at E.G. and G. Mason Research (Worchester, Mass.). First passage tumor was stored in liquid nitrogen using standard techniques. The transplanted tumor was re-established from the tumor bank every six months or as needed. The tumor is maintained by serial passage twice weekly in C3H mice (Charles River; Wilmington, Mass.).
(§1) The tumor was removed from passage animals and minced into 1 to 3 mm square fragments using sterile techniques. Tumor pieces were checked for sterility using both Antibiotic Medium 1 and Brain Heart Infusion (Difco; Detroit, Mich.). Recipient mice were shaved and tumor pieces were implanted subcutaneously in the axillary region by trocar. Drug therapy on the appropriate schedule was initiated on the day after tumor implant. The compound was dissolved in saline for all experiments. All animals were weighed at the beginning and end of drug treatment. Food and water were provided ad libitum. On days 10 to 12, two dimensional measurements (width and length) of all tumors were taken using vernier calipers. Tumor weights were calculated from these measurements using the following formula:
Tumor Weight (mg)=Tumor Length (mm)×Tumor Width (mm)^2 /2
For all data, the tumor weight was rounded to the nearest tenth of a gram for analysis. No group is included in the analysis for therapeutic activity in which deaths attributable to drug toxicity exceeded 30 percent of the treated group.
In Table 3 which follows, column 1 gives the example number of the compound tested; column 2 provides the tumor system; column 3, the dose level; column 4, the route administered; column 5, the dosage schedule; column 6, the percent inhibition of the tumor; and column 7, the toxic deaths observed prior to completion of the study.

[1] = tested on: 6C3HED, CA755, P1534J, X5563; test: additional tumor test systems (summary statement); assay type: in vivo, mice; conditions: systems include 6C3HED
Text: These systems include the 6C3HED lymphosarcoma, also known as the Gardner lymphosarcoma (6C3HED); the CA-755 adenocarcinoma (CA755); the P1534J lymphatic leukemia (P1534J); and the X5563 plasma cell myeloma (X5563). Each of these systems is described in detail below.
as §1, with “formula: […]” for “formula:”

Nc1ccn(C2O[C@H](CO)[C@@H](O)C2(F)F)c(=O)n1 (stereo partly shown) [Example 1, 1-(4-Amino-2-oxo-1H-pyrimidin-1-yl)-2-desoxy-2,2-difluororibose]
Percent Inhibition of Tumor (6C3HED lymphosarcoma; 0.05 mg/kg, Daily for 8 Days): 0%
Toxic Deaths (6C3HED lymphosarcoma; 0.05 mg/kg, Daily for 8 Days): 0/10
Percent Inhibition of Tumor (6C3HED lymphosarcoma; 0.1 mg/kg, Daily for 8 Days): 0%
Toxic Deaths (6C3HED lymphosarcoma; 0.1 mg/kg, Daily for 8 Days): 0/10
Percent Inhibition of Tumor (6C3HED lymphosarcoma; 0.2 mg/kg, Daily for 8 Days): 0%
Toxic Deaths (6C3HED lymphosarcoma; 0.2 mg/kg, Daily for 8 Days): 0/10
Percent Inhibition of Tumor (6C3HED lymphosarcoma; 0.4 mg/kg, Daily for 8 Days): 8%
Toxic Deaths (6C3HED lymphosarcoma; 0.4 mg/kg, Daily for 8 Days): 0/10
Percent Inhibition of Tumor (6C3HED lymphosarcoma; 1.25 mg/kg, Days 1,5,9): 0%
Toxic Deaths (6C3HED lymphosarcoma; 1.25 mg/kg, Days 1,5,9): 0/7
Percent Inhibition of Tumor (6C3HED lymphosarcoma; 2.5 mg/kg, Days 1,5,9): 1%
Toxic Deaths (6C3HED lymphosarcoma; 2.5 mg/kg, Days 1,5,9): 0/7
Percent Inhibition of Tumor (6C3HED lymphosarcoma; 5.0 mg/kg, Days 1,5,9): 49%
Toxic Deaths (6C3HED lymphosarcoma; 5.0 mg/kg, Days 1,5,9): 0/7
Percent Inhibition of Tumor (6C3HED lymphosarcoma; 10.0 mg/kg, Days 1,5,9): 88%
Toxic Deaths (6C3HED lymphosarcoma; 10.0 mg/kg, Days 1,5,9): 0/7
Percent Inhibition of Tumor (6C3HED lymphosarcoma; 20.0 mg/kg, Days 1,5,9): 95%
Toxic Deaths (6C3HED lymphosarcoma; 20.0 mg/kg, Days 1,5,9): 0/7
activity in additional tumor test systems (in words) [1]: demonstrated activity in additional tumor test systems
